# Test results as given in patent publication US20240208968A1, “ALPHA V BETA 6 AND ALPHA V BETA 1 INTEGRIN INHIBITORS AND USES THEREOF” (DiCE Molecules SV, Inc., priority 2021, published 2024).
# Where a name gives a salt, the structure may show the parent alone.
# What was measured:
# [1] = biological target: αvβ1 (Homo sapiens, UniProt P05556+P06756); test: Solid Phase Integrin αvβ1 Assay; format: binding
# Experimental: (§1) The compounds exemplified in this document were tested for their ability to inhibit αvβ1 and αvβ6 in below described solid phase integrin assays.
# Solid Phase Integrin αvβ1 Assay
# 96-well microtiter plates (4 HBX Immulon; Thermo Fisher Scientific, Waltham, MA) were coated with 100 μL/well of 1 μg/mL recombinant TGFb1-LAP in TBS at 4° C., overnight. The coating solution was removed, and plates were blocked with 200 μL/well of blocking and binding buffer (2% BSA/TBST, 1 mM MnCl2) at room temperature for 1 hr. Blocking buffer was removed and 50 μL of binding buffer and testing compounds were added. 50 μL of diluted αvβ1 (0.2 ug/mL in binding buffer) was added to wells (100 μL/well total) for and plates incubated for 90 min at room temperature. Wells were washed thrice with washing buffer (TBS, 0.05% Tween, 1 mM MnCl2) and plates were incubated with 100 μL/well of a 1:12500 dilution of streptavidin-horseradish peroxidase conjugate (Thermo Fisher Scientific) in binding buffer for 20 min at room temperature. Bound protein was detected using the substrate TMB. The IC50 values for testing compounds were calculated by Levenberg-Marquardt four parameter fitting logistics.
# [2] = biological target: αvβ6 (Homo sapiens, UniProt P06756+P18564); test: Solid Phase Integrin αvβ6 Assay; format: binding
# Experimental: as §1
# Solid Phase Integrin αvβ6 Assay
# 96-well microtiter plates (4 HBX Immulon; Thermo Fisher Scientific, Waltham, MA) were coated with 100 μL/well of 1 μg/mL recombinant TGFb1-LAP in TBS at 4° C., overnight. The coating solution was removed, and plates were blocked with 200 μL/well of blocking and binding buffer (2% BSA/TBST, 1 mM MnCl2) at room temperature for 1 hr. Blocking buffer was removed and 50 uL of binding buffer and testing compounds were added. 50 μL of diluted αvβ6 (0.2 μg/mL in binding buffer) was added to wells (100 uL/well total) and plates incubated for 1 hr at room temperature. Wells were washed thrice with washing buffer (TBS, 0.05% Tween, 1 mM MnCl2) and plates were incubated with 100 μL/well of a 1:12500) dilution of streptavidin-horseradish peroxidase conjugate (Thermo Fisher Scientific) in binding buffer for 20 min at room temperature. Bound protein was detected using the substrate TMB. The IC50 values for testing compounds were calculated by Levenberg-Marquardt four parameter fitting logistics.
# Chain of αvβ1 (P06756 31-992 limits assumed): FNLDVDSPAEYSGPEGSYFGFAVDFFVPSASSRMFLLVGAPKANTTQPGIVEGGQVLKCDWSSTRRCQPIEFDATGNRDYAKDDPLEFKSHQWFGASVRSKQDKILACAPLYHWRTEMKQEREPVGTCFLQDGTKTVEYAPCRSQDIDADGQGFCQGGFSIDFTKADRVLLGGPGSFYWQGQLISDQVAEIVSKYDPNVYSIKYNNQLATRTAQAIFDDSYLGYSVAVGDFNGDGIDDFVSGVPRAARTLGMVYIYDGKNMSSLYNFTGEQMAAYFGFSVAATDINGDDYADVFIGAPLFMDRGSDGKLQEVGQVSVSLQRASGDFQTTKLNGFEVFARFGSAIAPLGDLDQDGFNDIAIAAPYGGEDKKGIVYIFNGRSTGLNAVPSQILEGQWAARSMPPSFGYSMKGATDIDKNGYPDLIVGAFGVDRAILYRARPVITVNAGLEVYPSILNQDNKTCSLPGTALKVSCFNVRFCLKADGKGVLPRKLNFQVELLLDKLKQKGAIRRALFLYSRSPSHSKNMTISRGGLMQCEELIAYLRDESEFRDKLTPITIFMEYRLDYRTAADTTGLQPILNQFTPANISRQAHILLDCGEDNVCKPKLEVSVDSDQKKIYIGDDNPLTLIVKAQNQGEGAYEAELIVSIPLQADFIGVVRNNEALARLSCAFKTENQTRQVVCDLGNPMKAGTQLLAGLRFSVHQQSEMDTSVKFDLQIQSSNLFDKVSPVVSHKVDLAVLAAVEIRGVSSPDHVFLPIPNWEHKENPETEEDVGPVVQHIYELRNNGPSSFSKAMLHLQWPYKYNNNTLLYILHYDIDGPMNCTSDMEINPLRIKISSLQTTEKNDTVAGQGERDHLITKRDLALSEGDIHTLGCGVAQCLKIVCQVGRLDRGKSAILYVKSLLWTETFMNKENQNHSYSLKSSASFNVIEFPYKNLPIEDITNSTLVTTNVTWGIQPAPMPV
# Chain of αvβ1 (P05556 21-728 limits assumed): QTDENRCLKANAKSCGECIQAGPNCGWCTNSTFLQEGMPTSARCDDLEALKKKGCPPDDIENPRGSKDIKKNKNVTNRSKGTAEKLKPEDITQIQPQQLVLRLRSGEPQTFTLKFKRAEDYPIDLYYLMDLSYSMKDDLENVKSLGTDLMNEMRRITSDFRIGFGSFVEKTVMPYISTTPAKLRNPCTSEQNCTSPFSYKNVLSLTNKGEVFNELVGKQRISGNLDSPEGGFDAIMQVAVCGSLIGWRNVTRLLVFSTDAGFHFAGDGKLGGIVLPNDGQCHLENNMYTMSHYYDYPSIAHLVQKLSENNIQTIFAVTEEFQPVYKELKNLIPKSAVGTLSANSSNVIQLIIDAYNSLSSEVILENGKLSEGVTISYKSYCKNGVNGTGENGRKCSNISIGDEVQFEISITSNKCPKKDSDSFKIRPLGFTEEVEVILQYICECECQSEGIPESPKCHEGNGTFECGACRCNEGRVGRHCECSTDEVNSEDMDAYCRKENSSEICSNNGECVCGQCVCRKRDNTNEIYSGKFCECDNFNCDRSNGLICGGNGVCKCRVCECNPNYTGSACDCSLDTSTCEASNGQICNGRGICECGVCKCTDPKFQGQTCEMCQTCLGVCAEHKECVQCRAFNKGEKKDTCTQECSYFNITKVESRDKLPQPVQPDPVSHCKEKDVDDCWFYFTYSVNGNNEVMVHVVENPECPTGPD
# Chain of αvβ6 (P06756 31-992 limits assumed): as the sequence (P06756 31-992 limits assumed) above
# Chain of αvβ6 (P18564 22-707 limits assumed): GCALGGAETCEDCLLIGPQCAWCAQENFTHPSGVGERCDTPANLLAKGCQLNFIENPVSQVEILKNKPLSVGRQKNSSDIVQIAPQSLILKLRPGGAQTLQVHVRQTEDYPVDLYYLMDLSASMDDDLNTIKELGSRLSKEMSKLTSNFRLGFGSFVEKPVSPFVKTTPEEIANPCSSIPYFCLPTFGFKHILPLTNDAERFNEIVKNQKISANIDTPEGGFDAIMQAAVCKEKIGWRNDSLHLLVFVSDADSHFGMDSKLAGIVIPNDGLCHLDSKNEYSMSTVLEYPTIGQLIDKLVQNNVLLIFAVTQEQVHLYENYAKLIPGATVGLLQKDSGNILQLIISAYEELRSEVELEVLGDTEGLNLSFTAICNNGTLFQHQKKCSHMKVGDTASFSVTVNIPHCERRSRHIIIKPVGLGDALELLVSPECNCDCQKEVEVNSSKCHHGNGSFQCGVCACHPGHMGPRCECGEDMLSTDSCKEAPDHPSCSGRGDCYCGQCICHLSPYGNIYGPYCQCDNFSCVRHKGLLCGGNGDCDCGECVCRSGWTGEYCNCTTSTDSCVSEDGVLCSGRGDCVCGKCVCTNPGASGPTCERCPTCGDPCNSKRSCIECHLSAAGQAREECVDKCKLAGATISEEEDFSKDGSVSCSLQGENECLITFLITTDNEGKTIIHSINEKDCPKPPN
SMILES,IC50 [1] [nM],IC50 [2] [nM]
"O=C(O)C[C@H](NC(=O)[C@@H]1CCCN(CCCc2ccc3c(n2)NCCC3)C1)c1cccc(N2CCCC2)c1 [Compound 227, (S)-3-(3-(pyrrolidin-1-yl)phenyl)-3-((R)-1-(3-(5,6,7,8-tetrahydro-1,8-naphthyridin-2-yl)propyl)piperidine-3-carboxamido)propanoic acid]",< 100,< 100
"CN1CCN(c2cccc([C@H](CC(=O)O)NC(=O)[C@@H]3CCCN(CCCc4ccc5c(n4)NCCC5)C3)c2)CC1 [Compound 228, (S)-3-(3-(4-methylpiperazin-1-yl)phenyl)-3-((R)-1-(3-(5,6,7,8-tetrahydro-1,8-naphthyridin-2-yl)propyl)piperidine-3-carboxamido)propanoic acid]",< 100,< 100
"O=C(O)C[C@H](NC(=O)[C@@H]1CCCN(CCCc2ccc3c(n2)NCCC3)C1)c1cccc(N2CCOCC2)c1 [Compound 229, (S)-3-(3-morpholinophenyl)-3-((R)-1-(3-(5,6,7,8-tetrahydro-1,8-naphthyridin-2-yl)propyl)piperidine-3-carboxamido)propanoic acid hydrochloride]",< 100,< 100
"CC1(C)CCCN(c2cccc([C@H](CC(=O)O)NC(=O)[C@@H]3CCCN(CCCc4ccc5c(n4)NCCC5)C3)c2)C1 [Compound 230, (S)-3-(3-(3,3-dimethylpiperidin-1-yl)phenyl)-3-((R)-1-(3-(5,6,7,8-tetrahydro-1,8-naphthyridin-2-yl)propyl)piperidine-3-carboxamido)propanoic acid]",< 100,< 100
"O=C(O)C[C@H](NC(=O)[C@@H]1CCCN(CCCc2ccc3c(n2)NCCC3)C1)c1cccc(C2CCCC2)c1 [Compound 231, (S)-3-(3-cyclopentylphenyl)-3-((R)-1-(3-(5,6,7,8-tetrahydro-1,8-naphthyridin-2-yl)propyl)piperidine-3-carboxamido)propanoic acid hydrochloride]",< 100,< 100
"O=C(O)C[C@H](NC(=O)[C@@H]1CCCN(CCCc2ccc3c(n2)NCCC3)C1)c1cccc(N2CCCCC2)c1 [Compound 232, (S)-3-(3-(piperidin-1-yl)phenyl)-3-((R)-1-(3-(5,6,7,8-tetrahydro-1,8-naphthyridin-2-yl)propyl)piperidine-3-carboxamido)propanoic acid hydrochloride]",< 100,< 100
"O=C(O)CC(NC(=O)[C@@H]1CCCN(CCCc2ccc3c(n2)NCCC3)C1)c1cnn(-c2ccccc2)c1 (stereo partly drawn) [Compound 233, 3-(1-phenyl-1H-pyrazol-4-yl)-3-((R)-1-(3-(5,6,7,8-tetrahydro-1,8-naphthyridin-2-yl)propyl)piperidine-3-carboxamido)propanoic acid hydrochloride]",< 100,< 100
"CC1(C)CN(c2cccc([C@H](CC(=O)O)NC(=O)[C@@H]3CCCN(CCCc4ccc5c(n4)NCCC5)C3)c2)CCO1 [Compound 234, (S)-3-(3-(2,2-dimethylmorpholino)phenyl)-3-((R)-1-(3-(5,6,7,8-tetrahydro-1,8-naphthyridin-2-yl)propyl)piperidine-3-carboxamido)propanoic acid]",< 100,< 100
"CC1(C)COCCN1c1cccc([C@H](CC(=O)O)NC(=O)[C@@H]2CCCN(CCCc3ccc4c(n3)NCCC4)C2)c1 [Compound 235, (S)-3-(3-(3,3-dimethylmorpholino)phenyl)-3-((R)-1-(3-(5,6,7,8-tetrahydro-1,8-naphthyridin-2-yl)propyl)piperidine-3-carboxamido)propanoic acid]",< 100,< 100
"C[C@@H]1CN(c2cccc([C@H](CC(=O)O)NC(=O)[C@@H]3CCCN(CCCc4ccc5c(n4)NCCC5)C3)c2)C[C@H](C)O1 [Compound 236, (S)-3-(3-((2S,6R)-2,6-dimethylmorpholino)phenyl)-3-((R)-1-(3-(5,6,7,8-tetrahydro-1,8-naphthyridin-2-yl)propyl)piperidine-3-carboxamido)propanoic acid]",< 100,< 100
